Patent publication US11691972B2, “Compounds for targeted degradation of BRD9” (C4 Therapeutics, Inc., priority 2020, dated 2023)

biological target: T1, BRD9 (Homo sapiens, UniProt Q9H8M2); assay: HiBiT BRD9 degradation assay in 293T.166 (BRD9-HiBiT) cells; type: cell-based; parameters: endogenously expressing BRD9 with HiBiT fusion tag via CRISPR; host or cells: 293T.166 (BRD9-HiBiT), also expressing LgBiT ectopically; conditions: Table 1; 293T.166 cells, 2.0 hours; class symbols; read-out: HiBiT-Degradation 293T.166 BRD9 2.0 hours (DC50)
T1 sequence (Q9H8M2 1-597): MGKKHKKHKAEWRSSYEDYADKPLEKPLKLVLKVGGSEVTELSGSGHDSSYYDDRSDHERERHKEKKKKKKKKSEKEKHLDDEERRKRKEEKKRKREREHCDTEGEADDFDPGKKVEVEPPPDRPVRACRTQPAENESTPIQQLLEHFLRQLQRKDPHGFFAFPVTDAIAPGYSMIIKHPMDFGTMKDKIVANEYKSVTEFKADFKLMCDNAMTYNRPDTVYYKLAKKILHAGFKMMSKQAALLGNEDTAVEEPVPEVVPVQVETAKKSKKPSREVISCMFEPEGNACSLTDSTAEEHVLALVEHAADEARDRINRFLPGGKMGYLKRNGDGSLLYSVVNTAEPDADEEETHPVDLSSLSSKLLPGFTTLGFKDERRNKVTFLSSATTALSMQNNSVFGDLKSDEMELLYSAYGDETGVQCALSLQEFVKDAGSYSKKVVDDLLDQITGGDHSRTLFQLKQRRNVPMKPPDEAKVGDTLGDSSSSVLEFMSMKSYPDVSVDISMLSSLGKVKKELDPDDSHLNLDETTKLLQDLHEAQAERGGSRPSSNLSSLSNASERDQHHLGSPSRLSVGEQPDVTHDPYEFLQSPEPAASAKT
Method in brief: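 293T.166 cells carrying endogenous CRISPR BRD9-HiBiT and expressing LgBiT treated 2 h at 37° C. with compounds, 11-point half-log titration from 10 μM in duplicate. Remaining BRD9 measured as lytic HiBiT luminescence; untreated cells as negative control, no-reagent wells as positive control.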

`COc1cc(-c2cn(C)c(=O)c3[nH]ncc23)cc(OC)c1CN1CCC(N2CCN(c3ccc(NC4CCC(=O)NC4=O)cc3F)CC2)C(F)(F)C1` (stereo not shown) [Compound 182] and `COc1cc(-c2cn(C)c(=O)c3cnccc23)cc(OC)c1CN1CCC(N2CCN(c3ccc(NC4CCC(=O)NC4=O)cc3Cl)CC2)C(F)(F)C1` (stereo not shown) [Compound 188] cannot be ordered by DC50: less than 100 nM for the first, less than 100 nM for the second.

`Cc1c(-c2ccc(CN3CCC(C4CCN(c5ccc(NC6CCC(=O)NC6=O)nc5)CC4)CC3)c(OC(F)(F)F)c2)cn(C)c(=O)c1C` (stereo not shown) [Compound 90] and `COc1cc(-c2cn(C)c(=O)c3[nH]ncc23)cc(Cl)c1CN1CCC(C2CCN(c3ccc(NC4CCC(=O)NC4=O)cc3)CC2)CC1` (stereo not shown) [Compound 71] cannot be ordered by DC50: less than 100 nM for the first, less than 100 nM for the second.

`COc1cc(-c2cn(C)c(=O)c3cnccc23)cc(OC)c1C(=O)N1CCC(N2CCN(c3ccc(NC4CCC(=O)NC4=O)cc3F)CC2)C(F)(F)C1` (stereo not shown) [Compound 225] and `COc1cc(-c2cn(C)c(=O)c3cnccc23)cc(Cl)c1CN1CCC(N2CCN(c3ccc(NC4CCC(=O)NC4=O)cc3F)CC2)C(F)(F)C1` (single isomer, unassigned) [Compound 181, 3-[4-[4-[1-[[2-chloro-6-methoxy-4-(2-methyl-1-oxo-2,7-naphthyridin-4-yl)phenyl]methyl]-3,3-difluoro-4-piperidyl]piperazin-1-yl]-3-fluoro-anilino]piperidine-2,6-dione] cannot be ordered by DC50: less than 100 nM for the first, less than 100 nM for the second.

`COc1cc(-c2cn(C)c(=O)c3[nH]ncc23)cc(OC)c1CC1CCN(C(=O)CN2CCC(c3ccc(NC4CCC(=O)NC4=O)cc3)CC2)CC1` (stereo not shown) [Compound 155, 3-[4-[1-[2-[4-[[2,6-dimethoxy-4-(6-methyl-7-oxo-1H-pyrazolo[3,4-c]pyridin-4-yl)phenyl]methyl]-1-piperidyl]-2-oxo-ethyl]-4-piperidyl]anilino]piperidine-2,6-dione] and `COc1cc(-c2cn(C)c(=O)c3[nH]ncc23)cc(F)c1C=C1CCN(CC(=O)N2CCC(c3ccc(NC4CCC(=O)NC4=O)cc3)CC2)CC1` (stereo not shown) [Compound 157, 3-[4-[1-[2-[4-[[2-fluoro-6-methoxy-4-(6-methyl-7-oxo-1H-pyrazolo[3,4-c]pyridin-4-yl)phenyl]methylene]-1-piperidyl]acetyl]-4-piperidyl]anilino]piperidine-2,6-dione] cannot be ordered by DC50: less than 100 nM for the first, less than 100 nM for the second.

`COc1cc(-c2cn(C)c(=O)c3ccccc23)cc(OC)c1CN1CCc2c(CN3CCC(c4ccc(NC5CCC(=O)NC5=O)cc4)CC3)cccc2C1` (stereo not shown) [Compound 97] and `COc1cc(-c2cn(C)c(=O)c3[nH]ncc23)cc(OC)c1CN1CCc2c(CN3CCC(c4ccc(NC5CCC(=O)NC5=O)cc4)C(F)(F)C3)csc2C1` (stereo not shown) [Compound 103] cannot be ordered by DC50: less than 100 nM for the first, less than 100 nM for the second.

`COc1cc(-c2cn(C)c(=O)c3cnccc23)cc(Cl)c1CN1CCC(N2CCC(c3ccc(NC4CCC(=O)NC4=O)cc3F)CC2)C(F)(F)C1` (stereo not shown) [Compound 201] and `COc1cc(-c2cn(C)c(=O)c3cnccc23)cc(Cl)c1CN1CCC(C2CCN(c3ccc(NC4CCC(=O)NC4=O)cc3F)CC2)CC1` (stereo not shown) [Compound 78] cannot be ordered by DC50: less than 100 nM for the first, less than 100 nM for the second.

`Cc1c(-c2ccc(C(=O)N3CCC(N(C)C(=O)N4CCC(c5ccc(NC6CCC(=O)NC6=O)cc5F)CC4)CC3)c(OC(F)(F)F)c2)cn(C)c(=O)c1C` (stereo not shown) [Compound 143] and `COc1cc(-c2cn(C)c(=O)c3cnccc23)cc(F)c1C(=O)N1CCC(N(C)C(=O)N2CCC(c3ccc(NC4CCC(=O)NC4=O)cc3)CC2)CC1` (stereo not shown) [Compound 132] cannot be ordered by DC50: less than 100 nM for the first, less than 100 nM for the second.

`COc1cc(-c2cn(C)c(=O)c3cnccc23)cc(OC)c1CN1CCC(N2CCN(c3ccc(NC4CCC(=O)NC4=O)cc3C(F)(F)F)CC2)C(F)(F)C1` (stereo not shown) [Compound 185] and `COc1cc(-c2cn(C)c(=O)c(C)c2C)cc(OC)c1CN1CCN(C(=O)CC2CCN(c3ccc(NC4CCC(=O)NC4=O)cc3C(F)(F)F)CC2)CC1` (stereo not shown) [Compound 61] cannot be ordered by DC50: less than 100 nM for the first, less than 100 nM for the second.

`COc1cc(-c2cn(C)c(=O)c3[nH]ncc23)cc(F)c1CN1CCN(C(=O)NC2CCN(c3ccc(NC4CCC(=O)NC4=O)cc3)CC2)CC1` (stereo not shown) [Compound 145, N-[1-[4-[(2,6-dioxo-3-piperidyl)amino]phenyl]-4-piperidyl]-4-[[2-fluoro-6-methoxy-4-(6-methyl-7-oxo-1H-pyrazolo[3,4-c]pyridin-4-yl)phenyl]methyl]piperazine-1-carboxamide] and `COc1cc(-c2cn(C)c(=O)c3[nH]ncc23)cc(F)c1CN1CCN(C(=O)CN2CCC(c3ccc(NC4CCC(=O)NC4=O)cc3Cl)CC2)CC1` (stereo not shown) [Compound 24] cannot be ordered by DC50: less than 100 nM for the first, less than 100 nM for the second.

`COc1cc(-c2cn(C)c(=O)c3[nH]ncc23)cc(Cl)c1C(=O)N1CCC(C2CCN(c3ccc(NC4CCC(=O)NC4=O)cn3)CC2)CC1` (stereo not shown) [Compound 220] and `COc1cc(-c2cn(C)c(=O)c3[nH]ncc23)cc(OC)c1CC1CCN(C(=O)CC2CCN(c3ccc(NC4CCC(=O)NC4=O)cc3C(F)(F)F)CC2)CC1` (stereo not shown) [Compound 160] cannot be ordered by DC50: less than 100 nM for the first, less than 100 nM for the second.

Compared with `COc1cc(-c2cn(C)c(=O)c3[nH]ncc23)cc(F)c1CN1CCN(C(=O)Cc2c(F)cc(NC3CCC(=O)NC3=O)cc2F)CC1` (stereo not shown) [Compound 164, 3-[3,5-difluoro-4-[2-[4-[[2-fluoro-6-methoxy-4-(6-methyl-7-oxo-1H-pyrazolo[3,4-c]pyridin-4-yl)phenyl]methyl]piperazin-1-yl]-2-oxo-ethyl]anilino]piperidine-2,6-dione], `COc1cc(-c2cn(C)c(=O)c3ccccc23)cc(OC)c1C(=O)N1CCC(N(C)C(=O)N2CCC(c3ccc(NC4CCC(=O)NC4=O)cc3)CC2)CC1` (stereo not shown) [Compound 135] is lower in DC50: 100 to 500 nM for the first, less than 100 nM for the second.

same assay, conditions: Table 2; 293T.166 cells, 2.0 hours; class symbols; read-out: HiBiT-Degradation 293T.166 BRD9 2.0 hours (DC50)

`COc1cc(-c2cn(C)c(=O)c(C)c2C)cc(Cl)c1CN1CCC(C2CCN(c3ccc(NC4CCC(=O)NC4=O)nc3)CC2)C(F)(F)C1` (stereo not shown) [Compound 273] and `COc1cc(-c2cn(C)c(=O)c(C)c2C)cc(Cl)c1CN1CCC(C2CCN(c3ccc(NC4CCC(=O)NC4=O)cc3F)CC2)C(F)(F)C1` (single isomer, unassigned) [Compound 257] cannot be ordered by DC50: less than 100 nM for the first, less than 100 nM for the second.

same assay, conditions: Table 2; 293T.166 cells, 2.0 hours; numeric bound; read-out: HiBiT-Degradation 293T.166 BRD9 2.0 hours (DC50)

With `COc1cc(-c2cn(C)c(=O)c(C)c2C)cc(Cl)c1CN1CCc2c(CC3CCN(c4ccc(NC5CCC(=O)NC5=O)cc4F)CC3)cccc2C1` (single isomer, unassigned) [Compound 249] the DC50 was greater than 800 nM.
